Patent US6410792B1, “Amide derivatives and methods for using the same as selective neuropeptide Y receptor antagonists” (Bayer Corporation, priority 1997, dated 2002)
Like-named read-outs stand apart in the source and are kept apart here.

Assays:
[1] = target: T1, Y2 receptor (Homo sapiens, UniProt P49146); experiment: Y2 receptor binding assay ([125I]PYY, membrane protein); conditions: read-out: hNPY2 IC50
T1 sequence (P49146 1-381): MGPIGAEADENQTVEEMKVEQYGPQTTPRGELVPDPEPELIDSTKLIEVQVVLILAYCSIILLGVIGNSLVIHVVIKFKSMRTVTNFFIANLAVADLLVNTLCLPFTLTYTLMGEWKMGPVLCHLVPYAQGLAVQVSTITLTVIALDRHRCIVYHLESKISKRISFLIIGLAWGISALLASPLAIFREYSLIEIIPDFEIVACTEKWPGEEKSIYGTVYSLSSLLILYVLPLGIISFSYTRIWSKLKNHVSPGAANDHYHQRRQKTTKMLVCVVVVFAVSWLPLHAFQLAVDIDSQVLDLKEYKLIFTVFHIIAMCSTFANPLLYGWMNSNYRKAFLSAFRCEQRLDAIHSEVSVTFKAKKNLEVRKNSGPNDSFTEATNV
Outline: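 Filtration binding with membrane protein and drug dilution, 2 h at room temperature with mixing, radioactivity counted by gamma or scintillation. Y2: 25 pM [125I]PYY in Krebs-Ringer bicarbonate pH 7.4 with 0.01% BSA, nonspecific by 1 μM NPY. Y4/PP1: 50 pM [125I]hPP in HEPES-buffered saline pH 7.4 with protease inhibitors and 0.3% BSA, nonspecific by 1 μM hPP.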

[2] = target: T2, Human NPY5 receptor (Homo sapiens, UniProt Q15761); experiment: Human NPY5 receptor binding assay ([125I]PYY, membrane protein); conditions: [125I]PYY binding, read-out: hNPY5 IC50
T2 sequence (Q15761 1-445): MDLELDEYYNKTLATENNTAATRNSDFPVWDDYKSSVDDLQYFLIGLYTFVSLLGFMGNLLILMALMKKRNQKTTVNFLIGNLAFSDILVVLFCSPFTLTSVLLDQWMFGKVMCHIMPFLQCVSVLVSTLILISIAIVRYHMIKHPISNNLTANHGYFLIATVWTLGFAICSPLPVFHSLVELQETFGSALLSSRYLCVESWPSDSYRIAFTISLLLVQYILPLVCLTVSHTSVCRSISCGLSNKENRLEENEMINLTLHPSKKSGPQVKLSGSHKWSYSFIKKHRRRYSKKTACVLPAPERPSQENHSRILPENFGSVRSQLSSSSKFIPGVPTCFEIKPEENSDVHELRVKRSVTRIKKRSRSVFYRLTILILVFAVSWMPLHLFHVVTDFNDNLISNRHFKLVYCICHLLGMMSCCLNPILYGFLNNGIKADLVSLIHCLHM
Outline: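 First, membrane protein, drug dilution and 75-100 pM [125I]PYY were combined in pH 7.4 Tris saline buffer containing divalent cations and 0.1% BSA. Next, samples were mixed 2 hours at room temperature. Finally, samples were filtered, washed ice-cold and counted; 1 μM PYY gave nonspecific binding.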

[3] = [125I]PYY binding, membrane protein

Row | Structure (SMILES) | IC50 [1, 3] | IC50 [2] | IC50 [1]
1 | CCCC(=O)C1(c2ccccc2)CCN(CC(=O)Nc2ccc(C(=O)c3ccccc3)cc2)CC1 [Compound 74, N-(4-Benzoyl-phenyl)-2-(4-butyryl-4-phenyl-piperidin-1-yl)-acetamide] | > 5 µM | 0.4 µM | –
2 | CCCC(=O)C1(c2ccccc2)CCN(CC(=O)Nc2ccc(C3CCCCC3)cc2)CC1 [Compound 75, 2-(4-Butyryl-4-phenyl-piperidin-1-yl)-N-(4-cyclohexyl-phenyl)-acetamide] | – | 0.009 µM | > 5 µM
3 | O=C(CN1CCCC1c1cccnc1)Nc1ccc(C(=O)c2ccccc2)cc1 (stereo not drawn) [Compound 77, N-(4-Benzoyl-phenyl)-2-(2-pyridin-3-yl-pyrrolidin-1-yl)-acetamide] | > 5 µM | 2.6 µM | –
4 | O=C(CN1CCC[C@H]1CN1CCCC1)Nc1ccc(C(=O)c2ccccc2)cc1 [Compound 78, N-(4-Benzoyl-phenyl)-2-(2S-pyrrolidin-1-ylmethyl-pyrrolidin-1-yl)-acetamide] | > 5 µM | > 5 µM | –
5 | O=C(CN1CCC[C@H]1CN1CCCC1)Nc1ccc(C2CCCCC2)cc1 [Compound 79, N-(4-Cyclohexyl-phenyl)-2-(2S-pyrrolidin-1-ylmethyl-pyrrolidin-1-yl)-acetamide] | > 5 µM | 3.5 µM | –
6 | O=C(CN1CC[C@@H](O)C1)Nc1ccc(C2CCCCC2)cc1 [Compound 80, N-(4-Cyclohexyl-phenyl)-2-(3R-hydroxy-pyrrolidin-1-yl)-acetamide] | > 5 µM | 1.4 µM | –
7 | O=C(CN1CC[C@@H](O)C1)Nc1ccc(C(=O)c2ccccc2)cc1 [Compound 81, N-(4-Benzoyl-phenyl)-2-(3R-hydroxy-pyrrolidin-1-yl)-acetamide] | > 5 µM | > 5 µM | –
8 | O=C(CN1CCC[C@@H]1C(O)(c1ccccc1)c1ccccc1)Nc1ccc(C(=O)c2ccccc2)cc1 [Compound 82, N-(4-Benzoyl-phenyl)-2-[2R-(hydroxy-diphenyl-methyl)-pyrrolidin-1-yl]-acetamide] | > 5 µM | > 5 µM | –
9 | O=C(CN1CCC[C@@H]1C(O)(c1ccccc1)c1ccccc1)Nc1ccc(C2CCCCC2)cc1 [Compound 83, N-(4-Cyclohexyl-phenyl)-2-[2R-(hydroxy-diphenyl-methyl)-pyrrolidin-1-yl]-acetamide] | > 5 µM | 0.92 µM | –
10 | O=C(CN1CCC[C@H]1CO)Nc1ccc(C2CCCCC2)cc1 [Compound 84, N-(4-Cyclohexyl-phenyl)-2-(2S-hydroxymethyl-pyrrolidin-1-yl)-acetamide] | > 5 µM | 0.93 µM | –
11 | O=C(CN1CCC[C@H]1CO)Nc1ccc(C(=O)c2ccccc2)cc1 [Compound 85, N-(4-Benzoyl-phenyl)-2-(2S-hydroxymethyl-pyrrolidin-1-yl)-acetamide] | > 5 µM | 2.8 µM | –
12 | CC(=O)C1(c2ccccc2)CCN(CC(=O)Nc2ccc(C(=O)c3ccccc3)cc2)CC1 [Compound 86, 2-(4-Acetyl-4-phenyl-piperidin-1-yl)-N-(4-benzoyl-phenyl)-acetamide] | > 5 µM | 0.001 µM | –
13 | CC(=O)C1(c2ccccc2)CCN(CC(=O)Nc2ccc(C3CCCCC3)cc2)CC1 [Compound 87, 2-(4-Acetyl-4-phenyl-piperidin-1-yl)-N-(4-cyclohexyl-phenyl)-acetamide] | > 5 µM | 0.004 µM | –
14 | NC[C@@H]1CCCN1CC(=O)Nc1ccc(C2CCCCC2)cc1 [Compound 91, 2-(2S-Aminomethyl-pyrrolidin-1-yl)-N-(4-cyclohexyl-phenyl)-acetamide] | > 5 µM | 0.43 µM | –
15 | O=C(CN1CCC(O)C1)Nc1ccc(C2CCCCC2)cc1 (stereo not drawn) [Compound 92, N-(4-Cyclohexyl-phenyl)-2-(3-hydroxy-pyrrolidin-1-yl)-acetamide] | > 5 µM | 1.3 µM | –
16 | COC[C@@H]1CCCN1CC(=O)Nc1ccc(C2CCCCC2)cc1 [Compound 93, N-(4-Cyclohexyl-phenyl)-2-(2S-methoxymethyl-pyrrolidin-1-yl)-acetamide] | > 5 µM | 0.48 µM | –
17 | CC1(C)C[C@@H]2C[C@@](C)(CN2CC(=O)Nc2ccc(C3CCCCC3)cc2)C1 [Compound 94, N-(4-Cyclohexyl-phenyl)-2-((1S,5R)-1,3,3-trimethyl-6-aza-bicyclo[3.2.1]oct-6-yl)-acetamide] | > 5 µM | 3.2 µM | –

Row | Structure (SMILES) | IC50 [1, 3] | IC50 [2] | IC50 [1]
18 | O=C(CN1CCC[C@H]1C(=O)OCc1ccccc1)Nc1ccc(C2CCCCC2)cc1 [Compound 95, (2S)-1-[(4-Cyclohexyl-phenylcarbamoyl)-methyl]-pyrrolidin-2-carboxylic acid benzyl ester] | > 5 µM | 1.6 µM | –
19 | COC(=O)[C@@H]1CCCN1CC(=O)Nc1ccc(C2CCCCC2)cc1 [Compound 96, (2S)-1-[(4-Cyclohexyl-phenylcarbamoyl)-methyl]-pyrrolidine-2-carboxylic acid methyl ester] | > 5 µM | 1.2 µM | –
20 | O=C(CN1CCC(Br)CC1)Nc1ccc(C2CCCCC2)cc1 [Compound 97, 2-(4-Bromo-piperidin-1-yl)-N-(4-Cyclohexyl-phenyl)-acetamide] | > 5 µM | 0.15 µM | –
21 | O=C(CN1C[C@H](O)C[C@H]1C(=O)O)Nc1ccc(C2CCCCC2)cc1 [Compound 98, (2S,4R)-1-[(4-Cyclohexyl-phenylcarbamoyl)-methyl]-4-hydroxy-pyrrolidine-2-carboxylic acid] | > 5 µM | > 10 µM | –
22 | O=C(CN1CCC[C@H]1C(=O)O)Nc1ccc(C2CCCCC2)cc1 [Compound 99, (2S)-1-[(4-Cyclohexyl-phenylcarbamoyl)-methyl]-pyrrolidine-2-carboxylic acid] | > 5 µM | 8.4 µM | –
23 | NC1CCN(CC(=O)Nc2ccc(C3CCCCC3)cc2)C1 (stereo not drawn) [Compound 100, 2-(3-Amino-pyrrolidin-1-yl)-N-(4-cyclohexyl-phenyl)-acetamide] | > 5 µM | 2.4 µM | –
24 | O=C(CN1CCC(O)C1)Nc1ccc(C(=O)c2ccccc2)cc1 (stereo not drawn) [Compound 103, N-(4-Benzoyl-phenyl)-2-(3-hydroxy-pyrrolidin-1-yl)-acetamide] | > 5 µM | 3 µM | –
25 | COC[C@@H]1CCCN1CC(=O)Nc1ccc(C(=O)c2ccccc2)cc1 [Compound 104, N-(4-Benzoyl-phenyl)-2-(2S-methoxymethyl-pyrrolidin-1-yl)-acetamide] | > 5 µM | 0.49 µM | –
26 | CC1(C)C[C@@H]2C[C@@](C)(CN2CC(=O)Nc2ccc(C(=O)c3ccccc3)cc2)C1 [Compound 105, N-(4-Benzoyl-phenyl)-2-((1S,5R)-1,3,3-trimethyl-6-aza-bicyclo[3.2.1]oct-6-yl)-acetamide] | > 5 µM | 5.1 µM | –
27 | O=C(CN1CCC[C@H]1C(=O)OCc1ccccc1)Nc1ccc(C(=O)c2ccccc2)cc1 [Compound 106, (2S)-1-[(4-Benzoyl-phenylcarbamoyl)-methyl]-pyrrolidine-2-carboxylic acid benzyl ester] | > 5 µM | 3 µM | –
28 | COC(=O)[C@@H]1CCCN1CC(=O)Nc1ccc(C(=O)c2ccccc2)cc1 [Compound 107, (2S)-1-[(4-Benzoyl-phenylcarbamoyl)-methyl]-pyrrolidine-2-carboxylic acid methyl ester] | > 5 µM | 2.9 µM | –
29 | O=C(CN1CCC(Br)CC1)Nc1ccc(C(=O)c2ccccc2)cc1 [Compound 108, N-(4-Benzoyl-phenyl)-2-(4-bromo-piperidin-1-yl)-acetamide] | > 5 µM | 0.97 µM | –
30 | O=C(CN1C[C@H](O)C[C@H]1C(=O)O)Nc1ccc(C(=O)c2ccccc2)cc1 [Compound 109, (2S,4R)-1-[(4-Benzoyl-phenylcarbamoyl)-methyl]-4-hydroxy-pyrrolidine-2-carboxylic acid] | > 5 µM | > 10 µM | –
31 | O=C(CN1CCC[C@H]1C(=O)O)Nc1ccc(C(=O)c2ccccc2)cc1 [Compound 110, (2S)-1-[(4-Benzoyl-phenylcarbamoyl)-methyl]-pyrrolidine-2-carboxylic acid] | > 5 µM | 8.7 µM | –
32 | NC1CCN(CC(=O)Nc2ccc(C(=O)c3ccccc3)cc2)C1 (stereo not drawn) [Compound 112, 2-(3-Amino-pyrrolidin-1-yl)-N-(4-benzoyl-phenyl)-acetamide] | > 5 µM | 3.9 µM | –
33 | O=C(CN1CCC[C@@H]1CO)Nc1ccc(C2CCCCC2)cc1 [Compound 113, N-(4-Cyclohexyl-phenyl)-2-(2R-hydroxymethyl-pyrrolidin-1-yl)-acetamide] | > 5 µM | 0.7 µM | –
